Drawing on patent US12568968B2, “Herbicide combinations comprising glufosinate and epyrifencacil” (BASF SE, priority 2020, dated 2026), this text covers inhibition for 2 molecules.

What all share (assay): Greenhouse post-emergence weed control, percent injury vs untreated control
Assay type in all cases: in vivo

Experiment [1] concerns Avena fatua (AVEFA). The conditions noted are these: 480 h, 20 DAT, 1% MSO.
Experiment [2] deals with Abutilon theophrasti (ABUTH). The conditions noted are these: 480 h, 20 DAT.
The subject of experiment [3] is Amaranthus Palmeri (AMAPA). The conditions noted are these: 480 h, 20 DAT.
For experiment [4], the system named is Hordeum vulgare (HORVS). To be noted: 480 h, 20 DAT.
For experiment [5], the system named is Amaranthus tuberculatus (AMATU). The conditions noted are these: 480 h, 20 DAT.
Where [6] appears, read: 0.9 g ai/ha, read-out: Solo epyrifenacil % activity.
The mark [7] stands for this setting: 50 g ai/ha, read-out: Solo Glufosinate % activity.
[8] abbreviates: 200 g ai/ha, read-out: Solo Glufosinate % activity.

Each structure is given as a SMILES string.

`CCOC(=O)COc1ncccc1Oc1cc(-n2c(=O)cc(C(F)(F)F)n(C)c2=O)c(F)cc1Cl` [epyrifenacil, Acetic acid, 2-[[3-[2-chloro-5-[3,6-dihydro-3-methyl-2,6-dioxo-4-(trifluoromethyl)-1(2H)-pyrimidinyl]-4-fluorophenoxy]-2-pyridinyl]oxy]-, ethyl ester]: the inhibition at 0.9 g/ha came to 15% in experiment [1] (setting [6]); 20% in experiment [3] (setting [6]); 10% in experiment [4] (setting [6]); 75% in experiment [5] (0.9 g ai/ha, Table 2, read-out: Solo epyrifenacil % activity). Also, the inhibition at 0.1 g/ha in experiment [2] (0.1 g ai/ha, read-out: Solo epyrifenacil % activity) was 25%. Also, the inhibition at 0.3 g/ha in experiment [3] (0.3 g ai/ha, read-out: Solo epyrifenacil % activity) amounted to 15%.
Regarding `CP(=O)(O)CCC(N)C(=O)O` (racemic) [Glufosinate, (2RS)-2-amino-4-[hydroxy(methyl)phosphinoyl]butyric acid], the inhibition at 50 g/ha in experiment [1] (setting [7]) and in experiment [5] (setting [7]) was 10% each time. The inhibition at 200 g/ha was 10% in experiment [2] (setting [8]); 75% in experiment [3] (200 g ai/ha, Table 5, read-out: Solo Glufosinate % activity); 25% in experiment [4] (setting [8]); 70% in experiment [5] (setting [8]). In addition, in experiment [5] (100 g ai/ha, read-out: Solo Glufosinate % activity), the inhibition at 100 g/ha was 10%.
